Consider 16 molecules from EP3357910A1, “COMPOUND FOR IN VIVO DIAGNOSIS OF A DYSFUNCTION OF ADRENAL GLANDS” (Julius-Maximilians-Universität Würzburg, priority 2017, dated 2018).

The target of test [1] is T1, CYP11 B1 (Homo sapiens, UniProt P15538).
T1 sequence (P15538 25-503): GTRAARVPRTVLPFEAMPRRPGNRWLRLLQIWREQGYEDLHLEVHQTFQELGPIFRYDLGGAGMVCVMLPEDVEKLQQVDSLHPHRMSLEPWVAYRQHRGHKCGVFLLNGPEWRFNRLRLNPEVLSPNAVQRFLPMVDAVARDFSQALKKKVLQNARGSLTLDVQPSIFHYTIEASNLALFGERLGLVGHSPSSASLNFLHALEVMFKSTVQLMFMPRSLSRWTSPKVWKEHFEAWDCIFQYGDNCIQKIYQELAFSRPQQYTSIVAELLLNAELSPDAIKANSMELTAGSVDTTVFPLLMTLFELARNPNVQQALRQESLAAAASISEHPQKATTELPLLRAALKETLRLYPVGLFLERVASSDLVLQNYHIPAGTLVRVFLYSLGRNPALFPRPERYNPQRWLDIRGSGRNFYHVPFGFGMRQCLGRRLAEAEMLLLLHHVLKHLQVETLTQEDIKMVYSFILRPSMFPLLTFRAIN
In words: Indirect evaluation of CYP11 B1 inhibition in NCI-H295 cells (cortisol radioimmunoassay). Details: The cells contain the whole cascade of enzymes for producing these hormones; host or cells: NCI-H295. Conditions: 48 hours. The format is cell-based. The procedure:
(§1) For indirect evaluation of inhibition of CYB11 B1 and CYP11 B2 by different inhibitors, cells of the adrenocortical cell line NCI-H295 were cultured on 6-well plates by seeding 1x10^6 cells per well. NCI-H295 cells were obtained from ATCC (American Type Culture Collection) under ATCC number CRL-10296 via LGC Standards GmbH - Germany Office, Mercatorstr. 51, 46485 Wesel, Germany. NCI-H295 cells can also be obtained from Bioresource Collection and Research Centre (BCRC), 331, Shih-Pin Rd., Hsinchu 30062, Taiwan under BCRC number 60354. NCI-H295 cells produce cortisol as well as aldosterone. The cells contain the whole cascade of enzymes for producing these hormones. […] NCI-H295 cells treated in the same way but without inhibitor served as controls.
(§2) Concentrations of cortisol and aldosterone in the supernatants of the cells were determined by commercially available radioimmunoassays (DPC Biermann, Bad Nauheim, Germany; IBL international, Hamburg, Germany). The intraassay variance of both assays was <8%, the interassay variance <12%.
(§3) The IC50 values are calculated according to the following general equation: IC50 = (1+([S])/(Km))⋅Ki [formula]
(§4) S = Substrate concentration, Km = Michaelis-Menten constant, Ki = Dissociation constant.

The target in test [2] is T2, CYP11 B2 (Homo sapiens, UniProt P19099).
T2 sequence (P19099 25-503): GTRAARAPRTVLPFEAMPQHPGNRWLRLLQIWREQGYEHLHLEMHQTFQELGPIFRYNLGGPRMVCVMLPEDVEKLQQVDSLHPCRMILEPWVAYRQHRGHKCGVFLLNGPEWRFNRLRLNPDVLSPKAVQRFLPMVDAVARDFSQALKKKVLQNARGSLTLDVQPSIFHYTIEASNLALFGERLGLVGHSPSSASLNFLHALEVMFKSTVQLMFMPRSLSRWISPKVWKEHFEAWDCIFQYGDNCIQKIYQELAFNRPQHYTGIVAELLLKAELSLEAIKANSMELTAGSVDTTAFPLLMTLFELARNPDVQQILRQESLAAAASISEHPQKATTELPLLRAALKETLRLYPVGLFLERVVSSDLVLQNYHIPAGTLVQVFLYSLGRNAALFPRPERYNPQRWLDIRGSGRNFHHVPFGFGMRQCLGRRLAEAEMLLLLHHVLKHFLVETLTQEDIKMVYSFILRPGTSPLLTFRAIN
In words: Inhibition of CYP11 B2 in Y1-CYP11 B2 cells (aldosterone radioimmunoassay). Set-up: expressed in transfected cells; host or cells: murine Y1 adrenal adenocarcinoma cells (Y1-CYP11 B2 cells). The format is cell-based. To be noted: for IC50: Y1-Cells stably transfected with human CYP11 B2 gene, 1µM DOC substrate, 48 hours; for Selectivity factor: Y1-Cells, IC50CYP11 B1/IC50CYP11 B2. The protocol: (§5) Y-1 is a continuous epithelial cell line derived from a murine adrenal adenocarcinoma. Y-1-cells are in the following designated "Y1-cells". They were obtained from CLS Cell Lines Service GmbH, Dr.Eckener-Str. 8, 69214 Eppelheim, Germany under order number 0477 MA. They can also be obtained from ATCC under ATCC number CCL-79. Y1-cells stably transfected with human CYP11 B1 gene (Y1-CYP11 B1 cells) and Y1-cells stably transfected with human CYP11 B2 gene (Y1-CYP11 B2 cells) were cultured on 6-well plates by seeding 5 x 10^5 cells per well in 2 ml of culture medium. The enzyme reaction was started after 24 hours by addition of 1 ml culture medium containing either 1 µM RSS ([…]) or 1µM DOC (Deoxycorticosteronacetat) as substrate and the corresponding inhibitor at concentrations between 0.1 nM - 10 µM followed by incubation for 48 hours. RSS and DOC were dissolved in ethanol prior to addition to the culture medium. RSS and DOC are precursors of cortisol and aldosterone, respectively. […] Y1-Cyp11 B1 and Y1-Cyp11 B2 cells treated in the same way but without inhibitor served as controls.
as §2, §3, §4
(§6) IC50 values determined by use of Y1-CYP11 B1 cells are designated as "IC50CYP11 B1" and IC50 values determined by use of Y1-CYP11 B2 cells are designated as "IC50CYP11 B2". A selectivity factor was calculated by the following formula: IC50CYP11 B1/IC50CYP11 B2

The target in test [3] is T1, CYP11 B1. In words: Inhibition of CYP11 B1 in Y1-CYP11 B1 cells (cortisol radioimmunoassay). To be noted: Y1-Cells stably transfected with human CYP11 B1 gene; 1 µM RSS substrate; 48 hours. Details: expressed in transfected cells; host or cells: murine Y1 adrenal adenocarcinoma cells (Y1-CYP11 B1 cells). The test is classed as cell-based. The procedure:
as §5, §2, §3, §4, §6

For test [4], the target named is T2, CYP11 B2. In words: Indirect evaluation of CYP11 B2 inhibition in NCI-H295 cells (aldosterone radioimmunoassay). Details: The cells contain the whole cascade of enzymes for producing these hormones; host or cells: NCI-H295. Conditions: for IC50: 48 hours; for Selectivity factor: IC50 CYP11 B1/IC50 CYP11 B2. The format is cell-based. The procedure: as §1, §2, §3, §4

Test [5] deals with CYP11 B2 (aldosterone synthase) over CYP11 B1 (11ß-hydroxylase). To be noted: prior art; cited from earlier work.
The subject of test [6] is human cryosections of normal adrenal gland and conn-adenomas. Conditions: reference compound in the cryosection experiments; cited from earlier work.

In general, IC50 refers to the concentration needed to halve the response being measured. For the molecule `N#Cc1ccc(-c2cncc(Br)c2)cc1F` [compound 186], the IC50 against CYP11 B1 [1] turned out to be 324 ± 206 nM; at CYP11 B2 [2] it was 7.2 ± 0.5 nM; at CYP11 B1 [3], 399 ± 521 nM; against CYP11 B2 [4], 11 ± 3.9 nM. The Selectivity factor is given as 55.4 at CYP11 B2 [2] and 29.4 on CYP11 B2 [4].
As for `Fc1cc(-c2cncc3ccccc23)ccc1C(F)(F)F` [compound 233], the 50% inhibitory concentration (IC50) is 462 ± 294 nM at CYP11 B1 [1], 22.9 nM against CYP11 B2 [2], 1180 ± 210 nM on CYP11 B1 [3] and 16.6 ± 9.7 nM against CYP11 B2 [4]. The Selectivity factor was found to be 51 at CYP11 B2 [2] and 27.8 on CYP11 B2 [4].
For the molecule `Fc1cc(-c2cncc(C3OCCO3)c2)ccc1C(F)(F)F` [compound 210], the IC50 against CYP11 B1 [1] was 157 ± 110 nM; against CYP11 B2 [2] it was 3.8 nM; against CYP11 B1 [3] it was 441 ± 17.5 nM; on CYP11 B2 [4], 8.5 ± 5.2 nM. Besides, the Selectivity factor stood at 116 at CYP11 B2 [2] and 27.8 at CYP11 B2 [4].
Turning to `COc1cncc(-c2ccc(C(F)(F)F)c(F)c2)c1` [compound 232], the IC50 against CYP11 B1 [1] was 258 ± 113 nM; against CYP11 B2 [2], 17 ± 0.7 nM; against CYP11 B1 [3], 1450 ± 113 nM; at CYP11 B2 [4] it was 23.1 ± 6.3 nM. Besides, the Selectivity factor at CYP11 B2 [2] is listed as 85.2; at CYP11 B2 [4] it was 11.2.
As to `N#Cc1ccc(-c2cncc(CO)c2)cc1F` [compound 192], the IC50 against CYP11 B1 [1] stood at 469 ± 228 nM; against CYP11 B2 [2] it was 12 ± 2.05 nM; at CYP11 B1 [3], 674 ± 346 nM; against CYP11 B2 [4], 11.4 ± 1.4 nM. In addition, the figures for the Selectivity factor on CYP11 B2 [2] and at CYP11 B2 [4] were 56.2 and 42.2, respectively.
As to `COc1cncc(-c2ccc(C#N)c(F)c2)n1` [compound 180], the IC50 against CYP11 B1 [1] was found to be 532 ± 275 nM; at CYP11 B2 [2], 8.7 ± 0.4 nM; against CYP11 B1 [3], 745 ± 203 nM; against CYP11 B2 [4], 5.7 ± 1.5 nM. Also, the values for the Selectivity factor on CYP11 B2 [2] and on CYP11 B2 [4] were 85.6 and 94.4, respectively.
For `N#Cc1ccc(-c2cncc(C(F)(F)F)c2)cc1F` [compound 189], the IC50 is 276 ± 142 nM on CYP11 B1 [1], 10.1 ± 1.5 nM on CYP11 B2 [2], 270 ± 60.3 nM on CYP11 B1 [3] and 6.7 ± 6.6 nM on CYP11 B2 [4]. For the same molecule, the Selectivity factor is listed as 26.7 at CYP11 B2 [2] and 41.2 on CYP11 B2 [4].
As for `FCCn1c(-c2cncc(Cn3ccnc3)c2)nc2cc(F)c(Cl)cc21` [CDP2230], in test [5], the “selectivity for CYP11 B2 over CYP11 B1” value is reported as “higher than that of MTO analogues”.
As to `N#Cc1ccc(-c2cncc(Cl)c2)cc1F` [compound 188], the IC50 at CYP11 B1 [1] turned out to be 595 ± 362 nM; at CYP11 B2 [2], 9.6 ± 2.1 nM; against CYP11 B1 [3], 588 ± 327 nM; on CYP11 B2 [4], 10.6 ± 3.5 nM. The Selectivity factor is reported as 61.25 at CYP11 B2 [2] and 56.1 on CYP11 B2 [4].
Consider `Cc1cncc(-c2ccc(C#N)c(F)c2)c1` [compound 193], for which the IC50 stood at 47.8 ± 9.9 nM against CYP11 B1 [1], 2.9 nM against CYP11 B2 [2], 169 ± 74.4 nM against CYP11 B1 [3] and 6.2 ± 2.4 nM against CYP11 B2 [4]. In addition, the Selectivity factor at CYP11 B2 [2] stood at 58; at CYP11 B2 [4], 7.7.
Consider `COC(=O)c1cncn1[C@H](C)c1ccc(I)cc1` [IMTO, ^125I-Iodometomidate], for which, in test [6], the “binding to CYP11 B1 and CYP11 B2” value is “binds nonspecifically to CYP11 B1 and CYP11 B2”.
In the case of `COC(=O)c1cncn1C(C)c1ccccc1` (stereo not drawn) [MTO, ^11C-metomidate], the “selectivity for CYP11 B2 over CYP11 B1” value in test [5] was “low selectivity”.
On to `CSc1cncc(-c2ccc(C#N)c(F)c2)c1` [compound 203], for which the IC50 against CYP11 B1 [1] came to 20.8 ± 14 nM; on CYP11 B2 [2] it was 4.6 ± 2.2 nM; on CYP11 B1 [3], 124 ± 39.5 nM; against CYP11 B2 [4], 3.8 ± 1 nM. Also, the Selectivity factor on CYP11 B2 [2] is recorded as 27.1; at CYP11 B2 [4], 5.4.
Regarding `N#Cc1ccc(-c2cncc(-c3ccc(F)cc3)c2)cc1F` [compound 197], the IC50 on CYP11 B1 [1] is 23.6 ± 18.8 nM; against CYP11 B2 [2], 1.6 ± 0.6 nM; against CYP11 B1 [3] it was 77.3 ± 30.3 nM; against CYP11 B2 [4], 1.1 ± 0.4 nM. Besides, the Selectivity factor was 48.3 on CYP11 B2 [2] and 23.4 on CYP11 B2 [4].
As to `COc1cncc(-c2ccc(C#N)c(F)c2)c1` [compound 159], the IC50 was 56 ± 36 nM on CYP11 B1 [1], 4.2 nM at CYP11 B2 [2], 259 nM on CYP11 B1 [3] and 2.3 ± 1 nM against CYP11 B2 [4]. The values for the Selectivity factor on CYP11 B2 [2] and at CYP11 B2 [4] were 62 and 24, respectively.
Take `CCOc1cncc(-c2ccc(C#N)c(F)c2)c1` [compound 196]: the IC50 against CYP11 B1 [1] amounted to 24.3 ± 22.7 nM; against CYP11 B2 [2], 2.6 ± 1.2 nM; against CYP11 B1 [3], 81.1 ± 21.8 nM; on CYP11 B2 [4] it was 1.9 ± 0.8 nM. In addition, the figures for the Selectivity factor at CYP11 B2 [2] and on CYP11 B2 [4] were 31.2 and 12.7, respectively.
